Key:
HaCaT cells [1] = test: HaCaT scratch repopulation with Mitomycin C (migration study); type: cell-based, human; settings: with 1 μg/mL Mitomycin C; 0.001 to 1.0 μg/mL; p<0.05
[2] = system: TGF-β1-stimulated dermal fibroblasts; test: Differentiation of adult dermal fibroblasts into myofibroblasts (α-SMA expression); type: cell-based, human
Description: The effects of Compounds […] and 37 on dermal fibroblast differentiation to myofibroblasts was examined by the extent of α-SMA expression by TGF-βi-stimulated dermal fibroblasts.
Following trypsinization, fibroblasts were seeded in 8-well, Permanoxchamber slides (VWR International) in DMEM medium, containing antibiotics, 2 mM L-glutamine and 10% foetal calf serum (250 μL, all purchased from Invitrogen); at a cell density of 2.5×10^4 cells/well and maintained at 37° C. in 5% CO2/95% air for 48 h.
At 48 hr, fibroblasts were growth-arrested in serum-free DMEM for 48 hr and then replaced with serum-free DMEM (250 μL), containing Compounds 1 or 37 at concentrations of 0, 0.001, 0.01, 0.1, 1.0 and 10.0 μg/mL (3 wells/concentration/compound) and TGF-β1 (10 ng/ml, Peprotech). Fibroblasts were maintained at 37° C. in 5% CO2/95% air for 72 hr.
At 72 hr, chamber slide wells were washed with PBS (×1, 250 μL) and fixed in 4% paraformaldehyde (100 μL/well) for 10 min. The chamber slide wells were then washed again with PBS (×1, 250 μl), treated with 0.1% Triton X-100 in PBS (100 μL, Sigma) for 5 min and re-washed with PBS (×1, 250 μL). Wells were blocked with 1% BSA in PBS (250 μL, Sigma) for 1 h and washed (×3) in 0.1% BSA/PBS.
Wells were incubated with monoclonal mouse anti-human α-SMA, clone 1A4 (1:100, 150 ul, Sigma) at 4° C. overnight, washed (×6) in 0.1% BSA/PBS and incubated with Alexa Fluor 488 goat anti-mouse IgG antibody (1:1000, 250 μL, Invitrogen), at room temperature for 1 h, under darkness. Chamber slides were washed (×6) in 0.1% BSA/PBS and counterstained with Hoescht 33258 solution for 30 min under darkness (1:2000, 250 μL, Sigma). Chamber were subsequently removed for slides and treated with Fluorsave (Santa Cruz) for 10 min under darkness. Slides were viewed by fluorescence microscopy (Leica Microsystem), with digital images being capturedat ×200 magnification. Digital images were processed using HC Image J Software.

HaCaT cells [3] = test: HaCaT proliferation (MTT); type: cell-based, human; parameters: dose or concentration left out as unconfirmed; settings: 24, 48, 120 and 168 hr; p<0.01
Source text: The proliferation experiment assessed the effects of the two compounds on HaCaT proliferation (as measured by MTT) in the culture system at 4 time periods (24, 48, 120 and 168 hr).

[4] = system: immortalised human keratinocyte cells (HaCaT); test: Scratch repopulation and closure with HaCaT; type: cell-based; settings: 48 hours; for % of scratch wound area remaining open after treatment: ± standard error
Description: The ability of immortalised human keratinocyte cells (HaCaT) to migrate across a scratch wound made in a confluent monolayer following treatment with either Compound 1 or Compound 37 was determined by the following method.
Trypsinised HaCaT cells were seeded at a cell density of 7.4×10^4 cells/mL in 24-well BD Falcon flat-bottomed, tissue culture plates (VWR International, UK) in 1 mL Dulbecco's Modified Eagle Medium (DMEM), supplemented with L-glutamine (2 mM), antibiotics (100 U/mL penicillin G sodium, 100 μg/mL streptomycin sulphate and 0.25 μg/mL amphotericin B); and 10% foetal calf serum (all Invitrogen Ltd., UK) to give a cell density of 7.4×10^4 cells seeded in each well. The cells were then maintained at 37° C. in a 5% CO2/95% air atmosphere overnight. The following morning, the 10% foetal calf serum-containing DMEM was replaced with serum-free DMEM and the HaCaT cells were subsequently serum-starved in DMEM for 48 hr.
After 48 hr, the serum-free DMEM was removed and a single scratch ‘wound’ made with a sterile pipette across each cell layer. Following washing twice in 1 mL PBS, Compound 1- or Compound 37-containing medium (1 mL) was added to each well. This medium consisted of DMEM, supplemented with L-glutamine (2 mM), antibiotics (as above) and 1% foetal calf serum, in addition to Compound 1 or Compound 37 at final concentrations of 0, 0.001, 0.01, 0.1, 1.0, 10 or 100 μg/mL. There were three replicate wells per concentration for each compound.
The HaCaT cultures were maintained at 37° C. in a 5% CO2/95% air atmosphere and the repopulation of the denuded ‘wound’ areas monitored by Time-Lapse Confocal Microscopy (Leica TCS SP5 Confocal Microscope; Leica Microsystems UK Ltd., UK) at 100× magnification, with digital images captured at fixed positions every 20 min over a 48 h period. The digital image sequences were exported and prepared as .avi movie files, using LAS AF Software (Leica Microsystems). The rates of HaCaT wound closure in vitro were quantified using ImageJ Software (ImageJ 1.37v; http://rsb.info.nih.gov/ij/). The data was analysed by One Way Analysis of Variance with post-test Tukey analysis. Each experiment was performed on 3 separate occasions.

In the case of `CC=C(C)C(=O)OC1C(C)C2(O)C(C(O)C3(CO)OC3C3(O)C(=O)C(C)=CC32)C2C(C)(C)C12OC(=O)C(C)CC` (centres unmarked) [Compound 37, 12-tigloyl-13-(2-methylbutanoyl)-5,6-epoxy-4,5,9,12,13,20-hexahydroxy-1-tigliaen-3-one], the “scratch repopulation and closure (migration study)” value (HaCaT cells [1]) is reported as “enhanced”, the “differentiation of TGF-β1-treated adult dermal fibroblasts into myofibroblasts” value ([2]; 0.001 to 10.0 μg/mL, 72 hr) is reported as “affected differentiation into myofibroblasts in a concentration-dependent manner” and the myofibroblast morphology ([2]; 0.1 to 1.0 μg/mL) is reported as “subtle alterations in myofibroblast morphology”. The “α-SMA stress fibre formation and polygonal morphology development” value ([2]; TGF-β1 10 ng/ml, 72 hr, 10 μg/mL) was “disruptive effect on α-SMA stress fibre formation and polygonal morphology development”, the “proliferation of HaCaT cells (MTT) vs control with no compound” value (HaCaT cells [3]) was “increasing proliferation” and the “% of scratch wound area remaining open after treatment” value ([4]; 0.001 μg/ml) was 4.3 ± 4.1%. The “% of scratch wound area remaining open after treatment” value ([4]; 0.01 μg/ml) was 0.9 ± 1.5%, the “% of scratch wound area remaining open after treatment” value ([4]; 0.1 μg/ml) was 2.2 ± 3.4% and the “% of scratch wound area remaining open after treatment” value ([4]; 1.0 μg/ml) was 30.0 ± 5.3%. The “% of scratch wound area remaining open after treatment” value ([4]; 10 μg/ml) was 37.1 ± 7.1% and the “rate of scratch closure compared to the control treatment” value ([4]; 0.001, 0.01, 0.1 and 1.0 μg/ml, p<0.01) was “increased”.
